Assay results: publication PMC8280112, “Substrate reduction therapy for Krabbe disease and metachromatic leukodystrophy using a novel ceramide galactosyltransferase inhibitor” (Scientific Reports, 2021)

Target: T1, Human CGT (Homo sapiens, UniProt Q16880)
T1 construct: made in house; host or cells: CHO cells expressing UGT8; crude M-PER lysate
T1 sequence (Q16880 21-541): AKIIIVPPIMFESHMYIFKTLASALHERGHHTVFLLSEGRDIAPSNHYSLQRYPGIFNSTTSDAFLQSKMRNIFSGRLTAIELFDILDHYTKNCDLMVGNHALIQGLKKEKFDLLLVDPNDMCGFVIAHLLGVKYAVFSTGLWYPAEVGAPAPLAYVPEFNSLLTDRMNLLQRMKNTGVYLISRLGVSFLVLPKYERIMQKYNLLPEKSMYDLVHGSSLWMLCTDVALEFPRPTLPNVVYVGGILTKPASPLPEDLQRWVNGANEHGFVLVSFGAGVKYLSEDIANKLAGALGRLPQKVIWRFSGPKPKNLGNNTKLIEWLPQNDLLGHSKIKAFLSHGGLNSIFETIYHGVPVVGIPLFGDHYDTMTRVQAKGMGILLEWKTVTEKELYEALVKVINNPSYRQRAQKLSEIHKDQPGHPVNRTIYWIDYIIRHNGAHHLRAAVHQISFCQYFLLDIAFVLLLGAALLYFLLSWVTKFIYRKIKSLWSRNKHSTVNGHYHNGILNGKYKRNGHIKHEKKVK
Assay: CGT enzyme assay (cell-lysate assay)
Format: biochemical
Settings: lysate of CHO cells expressing human UGT8
Method: Human CGT was obtained from a cell lysate from CHO cells expressing UGT8 (made by BioMarin) prepared in M-PER with proteinase inhibitors (Sigma). Compounds, serially diluted in DMSO and Tween 80, were added to 4 µg/well of CHO/CGT cell lysate to make 20 µL final reaction volume containing 0.5% DMSO and 0.01% Tween 80 in the reaction buffer consisting of 10 µM NDB-(2R-OH)-C6 ceramide (made by BioMarin), 17.5 µM UDP-Galactose (Sigma), 35 µM of dioleoylphosphatidylcholine (DOPC), 5 mM MgCl2, 5 mM MnCl2, 1% BSA, 15 mM KCl, 1 mM EGTA, 8 mM CHAPS, 10 mM HEPES–NaOH pH 7.2. The reaction was incubated at 37 °C for 1 h and stopped by adding 80 µL of methanol:acetonitrile (1:3) with 5 µM N-dodecanoyl-NBD-galactosylceramide (Matreya) internal standard (IS) for 30 min. 200 µL H2O:ACN (1:1) was added for 5 min and then centrifuged at 4000 rpm for 38 min at RT before quantifying NDB-(2R-OH)-C6-galactosylceramide (BioMarin) by LC–MS on a Rapid Fire 360 mass spectrometer (Agilent) coupled with a API4000 + MS in electrospray ionization (ESI) negative mode (Applied Biosystems). These assay conditions were used to screen the Bio-active lipid library (Cayman Cat# 10506).

IC50: 23 µM
SMILES: O=C1N(c2ccc(Br)cc2)C(=O)C(O)(c2ccccc2)N1c1ccc(Br)cc1 (stereo not shown) [S221]
